Experimental data reported in patent publication US9790189B2, “Disubstituted 5-fluoro pyrimidine derivatives containing a sulfondiimine group” (Bayer Pharma Aktiengesellschaft, priority 2014, dated 2017).
≈ marks a conversion by molar mass, not a printed value. Where two headings read alike, the source gives them in different places.

Key:
[1] = tested on: DU145 cells; assay: Proliferation assay, DU145 (crystal violet); type: cell-based; settings: Homo sapiens, DU-145, 96 h; DU145, 4 days; read-out: Inhibition of DU145 cell proliferation IC50
Method: (§1) Cultivated tumour cells (HeLa, human cervical tumour cells, ATCC CCL-2; NCI-H460, human non-small cell lung carcinoma cells, ATCC HTB-177; A2780, human ovarian carcinoma cells, ECACC #93112519; DU 145, hormone-independent human prostate carcinoma cells, ATCC HTB-81; HeLa-MaTu-ADR, multidrug-resistant human cervical carcinoma cells, EPO-GmbH Berlin; Caco-2, human colorectal carcinoma cells, ATCC HTB-37; B16F10, mouse melanoma cells, ATCC CRL-6475) were plated at a density of 5,000 cells/well (DU145, HeLa-MaTu-ADR), 3,000 cells/well (NCI-H460, HeLa), 2,500 cells/well (A2780), 1,500 cells/well (Caco-2), or 1,000 cells/well (B16F10) in a 96-well multititer plate in 200 μL of their respective growth medium supplemented 10% fetal calf serum. After 24 hours, the cells of one plate (zero-point plate) were stained with crystal violet (see below), while the medium of the other plates was replaced by fresh culture medium (200 μl), to which the test substances were added in various concentrations (0 μM, as well as in the range of 0.001-10 μM; the final concentration of the solvent dimethyl sulfoxide was 0.5%). The cells were incubated for 4 days in the presence of test substances. Cell proliferation was determined by staining the cells with crystal violet: the cells were fixed by adding 20 μl/measuring point of an 11% glutaric aldehyde solution for 15 minutes at room temperature. After three washing cycles of the fixed cells with water, the plates were dried at room temperature. The cells were stained by adding 100 μl/measuring point of a 0.1% crystal violet solution (pH 3.0). After three washing cycles of the stained cells with water, the plates were dried at room temperature. The dye was dissolved by adding 100 μl/measuring point of a 10% acetic acid solution. The extinction was determined by photometry at a wavelength of 595 nm. The change of cell number, in percent, was calculated by normalization of the measured values to the extinction values of the zero-point plate (=0%) and the extinction of the untreated (0 μm) cells (=100%).

[2] = tested on: B16F10 cells; assay: Proliferation assay, B16F10 (crystal violet); type: cell-based; settings: Mus musculus, B16-F10, 96 h; B16F10, 4 days; read-out: Inhibition of B16F10 cell proliferation IC50
Method: as §1

[3] = tested on: HeLa cells; assay: Proliferation assay, HeLa (crystal violet); type: cell-based; settings: Homo sapiens, 96 h, 4 days, read-out: Inhibition of HeLa cell proliferation IC50
Method: as §1

[4] = biological target: T1, CDK2/CycE (Homo sapiens, UniProt P24941); assay: CDK2/CycE kinase assay (TR-FRET, Method 2a)
[5] = tested on: NCI-H460 cells; assay: Proliferation assay, NCI-H460 (crystal violet); type: cell-based; settings: Homo sapiens, 96 h; NCI-H460, 4 days; read-out: Inhibition of NCI-H460 cell proliferation IC50
Method: as §1

[6] = biological target: T1, CDK2/CycE; assay: CDK2/CycE high ATP kinase assay (TR-FRET, Method 2b)
[7] = tested on: A2780 cells; assay: Proliferation assay, A2780 (crystal violet); type: cell-based; settings: Homo sapiens, 96 h; A2780, 4 days; read-out: Inhibition of A2780 cell proliferation IC50
Method: as §1

[8] = tested on: Caco-2 cells; assay: Proliferation assay, Caco-2 (crystal violet); type: cell-based; settings: Homo sapiens, 96 h; Caco-2, 4 days; read-out: Inhibition of Caco-2 cell proliferation IC50
Method: as §1

[9] = tested on: HeLa-MaTu-ADR cells; assay: Proliferation assay, HeLa-MaTu-ADR (crystal violet); type: cell-based; settings: Homo sapiens, 96 h, 4 days, read-out: Inhibition of HeLa-MaTu-ADR cell proliferation IC50
Method: as §1

[10] = Equilibrium shake flask solubility, high throughput from DMSO solution (Method 4a); type: physicochemical; settings: phosphate buffer pH 6.5 with 1% DMSO, aqueous buffer, phosphate buffer pH 6.5, 24 hrs, room temperature
Excerpt: 4. Equilibrium Shake Flask Solubility Assays:
4a) High Throughput Determination of Aqueous Drug Solubility (100 mmolar in DMSO)
The high throughput screening method to determine aqueous drug solubility is based on:
Thomas Onofrey and Greg Kazan, Performance and correlation of a 96-well high throughput screening method to determine aqueous drug solubility, http://www.millipore.com/publications.nsf/a73664f9f981af8c852569b9005b4eee/e565516fb76e7435852 56da30052db77/$FILE/AN1731EN00.pdf
The assay was run in a 96-well plate format. Each well was filled with an individual compound.
All pipetting steps were performed using a robot platform.
100 μl of a 10 mmolar solution of drug in DMSO were concentrated by vacuum centrifugation and resolved in 10 μl DMSO. 990 μl phosphate buffer pH 6.5 were added. The content of DMSO amounts to 1%. The multititer plate was put on a shaker and mixed for 24 hrs at room temperature. 150 μl of the suspension were transferred to a filtration plate. After filtration using a vacuum manifold the filtrate was diluted 1:400 and 1:8000. A second microtiter plate with 20 μl of a 10 mM solution of drug in DMSO served for calibration. Two concentrations (0.005 μM and 0.0025 μM) were prepared by dilution in DMSO/water 1:1 and used for calibration. Filtrate and calibration plates were quantified by HPLC-MS/MS.
Preparation of 0.1 m Phosphate Buffer pH 6.5:
61.86 g NaCl and 39.54 mg KH2PO4 were solved in water and filled up to […]. The mixture was diluted 1:10 with water and the pH adjusted to 6.5 by NaOH.
Materials: • Millipore MultiScreenHTS-HV Plate 0.45 μm
Chromatographic conditions were as follows: • HPLC column: Ascentis Express C18 2.7 μm 4.6×30 mm • Injection volume: 1 μl • Flow: 1.5 ml/min • Mobile phase: acidic gradient • A: Water/0.05% HCOOH • B: Acetonitrile/0.05% HCOOH • 0 min→95% A 5% B • 0.75 min→5% A 95% B • 2.75 min→5% A 95% B • 2.76 min→95% A 5% B • 3 min→95% A 5% B
The areas of sample- and calibration injections were determined by using mass spectromety software (AB SCIEX: Discovery Quant 2.1.3. and Analyst 1.6.1). The calculation of the solubility value (in mg/l) was executed by an inhouse developed Excel macro.

[11] = Caco-2 permeation assay (Method 5); type: in vitro ADME; settings: human; for Papp A→B at 2 h, 2 µM / Papp B→A at 2 h, 2 µM: pH 7.2, Caco-2, 2 μM test compound; for Papp A→B at 2 h, 2 µM: read-out: Papp A−B (Mari); for Papp B→A at 2 h, 2 µM: read-out: Papp B−A (Mari)
Method: Cells were maintained at 37° C. in a humidified 5% CO2 atmosphere. Medium was changed every 2-3 day. Before running the permeation assay, the culture medium was replaced by a FCS-free hepes-carbonate transport buffer (pH 7.2). For assessment of monolayer integrity the transepithelial electrical resistance (TEER) was measured. Test compounds were predissolved in DMSO and added either to the apical or basolateral compartment in final concentration of 2 μM in transport buffer. Before and after 2 h incubation at 37° C. samples were taken from both compartments. Analysis of compound content was done after precipitation with methanol by LC/MS/MS analysis. Permeability (Papp) was calculated in the apical to basolateral (A→B) and basolateral to apical (B→A) directions. […] The efflux ratio basolateral (B) to apical (A) was calculated by dividing the Papp B−A by the Papp A−B. In addition the compound recovery was calculated.

[12] = biological target: T2, CDK9/CycT1 (Homo sapiens, UniProt P50750)
[13] = biological target: T2, CDK9/CycT1; assay: CDK9/CycT1 kinase assay (TR-FRET, Method 1a)
[14] = tested on: MOLM-13 cells; assay: Proliferation assay, MOLM-13 (Cell Titre-Glo); type: cell-based; settings: Homo sapiens; MOLM-13, 72-hour exposure; read-out: Inhibition of MOLM-13 cell proliferation IC50
Method: Non-adherent MOLM-13 human acute myeloid leukemia cells (DSMZ ACC 554) were seeded at a density of 5,000 cells/well in a 96-well multititer plate in 100 μL of growth medium supplemented 10% fetal calf serum. After 24 hours, cell viability of one plate (zero-point plate) was determined with the Cell Titre-Glo Luminescent Cell Viability Assay (Promega), while 50 μL of test compound containing medium was added to the wells of the other plates (final concentrations in the range of 0.001-10 μM and DMSO controls; the final concentration of the solvent dimethyl sulfoxide was 0.5%). Cell viability was assessed after 72-hour exposure with the Cell Titre-Glo Luminescent Cell Viability Assay (Promega).

T2 sequence (P50750 whole entry): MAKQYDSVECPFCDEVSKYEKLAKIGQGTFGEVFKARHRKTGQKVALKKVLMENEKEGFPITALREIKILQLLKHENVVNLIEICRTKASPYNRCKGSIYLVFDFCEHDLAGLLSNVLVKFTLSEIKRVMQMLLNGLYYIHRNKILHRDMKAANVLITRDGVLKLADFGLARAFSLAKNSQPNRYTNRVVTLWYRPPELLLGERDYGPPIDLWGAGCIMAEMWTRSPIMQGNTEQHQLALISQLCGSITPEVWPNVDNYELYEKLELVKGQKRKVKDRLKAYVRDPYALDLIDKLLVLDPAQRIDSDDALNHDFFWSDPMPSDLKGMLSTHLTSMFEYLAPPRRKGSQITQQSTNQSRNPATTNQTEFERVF
T2 sequence (O60563 whole entry partner): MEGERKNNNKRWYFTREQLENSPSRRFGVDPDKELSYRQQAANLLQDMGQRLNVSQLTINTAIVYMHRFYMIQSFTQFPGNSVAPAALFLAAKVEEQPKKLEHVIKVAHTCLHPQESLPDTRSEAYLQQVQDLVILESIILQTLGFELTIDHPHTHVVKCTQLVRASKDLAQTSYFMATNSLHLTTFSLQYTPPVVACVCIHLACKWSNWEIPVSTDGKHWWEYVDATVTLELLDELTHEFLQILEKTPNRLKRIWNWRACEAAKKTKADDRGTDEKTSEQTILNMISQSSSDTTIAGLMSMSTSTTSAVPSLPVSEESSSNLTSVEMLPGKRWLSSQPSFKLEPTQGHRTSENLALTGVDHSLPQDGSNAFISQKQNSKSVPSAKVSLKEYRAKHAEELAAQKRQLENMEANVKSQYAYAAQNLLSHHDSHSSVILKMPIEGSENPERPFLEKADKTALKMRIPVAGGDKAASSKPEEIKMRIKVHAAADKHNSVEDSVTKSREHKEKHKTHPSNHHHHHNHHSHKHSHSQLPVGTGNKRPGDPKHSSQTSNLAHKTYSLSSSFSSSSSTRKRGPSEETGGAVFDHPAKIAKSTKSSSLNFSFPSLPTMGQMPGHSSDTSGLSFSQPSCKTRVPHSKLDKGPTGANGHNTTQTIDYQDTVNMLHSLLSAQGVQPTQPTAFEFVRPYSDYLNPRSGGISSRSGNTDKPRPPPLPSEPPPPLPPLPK

Compound | IC50 [1] | IC50 [2] | IC50 [3] | IC50 [4] | IC50 [5] | IC50 [6] | IC50 [7] | IC50 [8] | IC50 [9] | solubility thermodynamic at 24 h [10] | Papp A→B at 2 h, 2 µM [11] | Papp B→A at 2 h, 2 µM [11] | efflux ratio at 2 h, 2 µM ([11]; Caco-2, pH 7.2) | IC50 [12] | Selectivity high ATP CDK9 over high ATP CDK2: IC50 (high ATP CDK2)/IC50 (high ATP CDK9) ([12]; Methods 1b and 2b) | IC50 [13] | Selectivity CDK9 over CDK2: IC50 (CDK2)/IC50 (CDK9) ([13]; Methods 1a and 2a) | IC50 [14]
CN=S(C)(=N)Cc1cc(F)cc(Nc2ncc(F)c(-c3ccc(F)cc3OC)n2)c1 (racemic) [Example 2, (rac)-N-{3-[(N,S-Dimethylsulfonodiimidoyl)methyl]-5-fluorophenyl}-5-fluoro-4-(4-fluoro-2-methoxyphenyl)pyrimidin-2-amine] | 636 nM | 1120 nM | 412 nM | 1300 nM | 968 nM | 13000 nM | 333 nM | 849 nM | 793 nM | 97 µg/mL (≈ 223 µM) | – | – | – | – | – | – | – | –
COc1cc(F)ccc1-c1nc(Nc2cc(F)cc(CS(C)(=N)=Nc3ccccc3)c2)ncc1F (racemic) [Example 3, (rac)-5-Fluoro-4-(4-fluoro-2-methoxyphenyl)-N-{3-fluoro-5-[(S-methyl-N-phenylsulfonodiimidoyl)methyl]phenyl}pyrimidin-2-amine] | 1050 nM | 1270 nM | 991 nM | 1400 nM | 1090 nM | – | 548 nM | 1000 nM | 863 nM | 1.4 µg/mL (≈ 2.81 µM) | – | – | – | – | – | – | – | –
C#CCN=S(C)(=N)Cc1cc(F)cc(Nc2ncc(F)c(-c3ccc(F)cc3OC)n2)c1 (racemic) [Example 4, (rac)-5-Fluoro-4-(4-fluoro-2-methoxyphenyl)-N-(3-fluoro-5-{[S-methyl-N-(prop-2-yn-1-yl)sulfonodiimidoyl]methyl}phenyl)pyrimidin-2-amine] | 581 nM | 1130 nM | 535 nM | 580 nM | 935 nM | 4290 nM | 355 nM | 847 nM | 696 nM | – | – | – | – | – | – | – | – | –
COc1cc(F)ccc1-c1nc(Nc2cc(F)cc(CS(C)(=N)=NC#N)c2)ncc1F (racemic) [Example 5, (rac)-[(3-Fluoro-5-{[5-fluoro-4-(4-fluoro-2-methoxyphenyl)pyrimidin-2-yl]amino}benzyl)(imino)methyl-λ^6-sulfanylidene]cyanamide] | 42 nM | 122 nM | 73 nM | 190 nM | 193 nM | 1470 nM | 35 nM | 94 nM | 80 nM | – | 2.88 ×10⁻⁶ cm/s | 19.9 ×10⁻⁶ cm/s | – | – | – | – | – | –

Further lines, results first:

IC50 [1] | IC50 [2] | IC50 [3] | IC50 [4] | IC50 [5] | IC50 [6] | IC50 [7] | IC50 [8] | IC50 [9] | solubility thermodynamic at 24 h [10] | Papp A→B at 2 h, 2 µM [11] | Papp B→A at 2 h, 2 µM [11] | efflux ratio at 2 h, 2 µM ([11]; Caco-2, pH 7.2) | IC50 [12] | Selectivity high ATP CDK9 over high ATP CDK2: IC50 (high ATP CDK2)/IC50 (high ATP CDK9) ([12]; Methods 1b and 2b) | IC50 [13] | Selectivity CDK9 over CDK2: IC50 (CDK2)/IC50 (CDK9) ([13]; Methods 1a and 2a) | IC50 [14] | Compound
– | – | 507 nM | 970 nM | – | 19800 nM | – | – | – | 259 µg/mL (≈ 540 µM) | – | – | – | – | – | – | – | – | COc1cc(F)ccc1-c1nc(Nc2cc(F)cc(CS(C)(=N)=NCCCO)c2)ncc1F (racemic) [Example 6, (rac)-3-{[(3-Fluoro-5-{[5-fluoro-4-(4-fluoro-2-methoxyphenyl)pyrimidin-2-yl]amino}benzyl)(imino)methyl-λ^6-sulfanylidene]amino}propan-1-ol]
– | – | 346 nM | 2300 nM | – | ≥ 20000 nM | 337 nM | – | – | 1.2 µg/mL (≈ 2.32 µM) | 3.21 ×10⁻⁶ cm/s | 3.57 ×10⁻⁶ cm/s | 1.1 | 26 nM | 769 | 17 nM | 135 | 244 nM | CS(=N)(=N)Cc1cc(Nc2ncc(F)c(-c3ccc(F)cc3F)n2)cc(S(F)(F)(F)(F)F)c1 [Example 7, 4-(2,4-Difluorophenyl)-5-fluoro-N-{3-[(S-methylsulfonodiimidoyl)methyl]-5-(pentafluoro-λ^6-sulfanyl)phenyl}pyrimidin-2-amine]
130 nM | 237 nM | 104 nM | 400 nM | 149 nM | 2990 nM | – | 144 nM | 194 nM | 2.2 µg/mL (≈ 4.15 µM) | 3.33 ×10⁻⁶ cm/s | 5.19 ×10⁻⁶ cm/s | – | – | – | – | – | 36 nM | COc1cc(F)ccc1-c1nc(Nc2cc(CS(C)(=N)=N)cc(S(F)(F)(F)(F)F)c2)ncc1F [Example 8, 5-Fluoro-4-(4-fluoro-2-methoxyphenyl)-N-{3-[(S-methylsulfonodiimidoyl)methyl]-5-(pentafluoro-λ^6-sulfanyl)phenyl}pyrimidin-2-amine]
